Our source for the IC50 values is patent US12234232B2, “Aromatic heterocyclic compound with kinase inhibitory activity” (SHANGHAI ENNOVABIO PHARMACEUTICALS CO., LTD., priority 2018, dated 2025).

SMILES strings stand for the structures. pIC50: −log10 of the molar value.

The target in test [1] is T1, JAK3 protein (Homo sapiens, UniProt P52333).
T1 construct: purchased Carna Biosciences
T1 sequence (P52333 1-1124): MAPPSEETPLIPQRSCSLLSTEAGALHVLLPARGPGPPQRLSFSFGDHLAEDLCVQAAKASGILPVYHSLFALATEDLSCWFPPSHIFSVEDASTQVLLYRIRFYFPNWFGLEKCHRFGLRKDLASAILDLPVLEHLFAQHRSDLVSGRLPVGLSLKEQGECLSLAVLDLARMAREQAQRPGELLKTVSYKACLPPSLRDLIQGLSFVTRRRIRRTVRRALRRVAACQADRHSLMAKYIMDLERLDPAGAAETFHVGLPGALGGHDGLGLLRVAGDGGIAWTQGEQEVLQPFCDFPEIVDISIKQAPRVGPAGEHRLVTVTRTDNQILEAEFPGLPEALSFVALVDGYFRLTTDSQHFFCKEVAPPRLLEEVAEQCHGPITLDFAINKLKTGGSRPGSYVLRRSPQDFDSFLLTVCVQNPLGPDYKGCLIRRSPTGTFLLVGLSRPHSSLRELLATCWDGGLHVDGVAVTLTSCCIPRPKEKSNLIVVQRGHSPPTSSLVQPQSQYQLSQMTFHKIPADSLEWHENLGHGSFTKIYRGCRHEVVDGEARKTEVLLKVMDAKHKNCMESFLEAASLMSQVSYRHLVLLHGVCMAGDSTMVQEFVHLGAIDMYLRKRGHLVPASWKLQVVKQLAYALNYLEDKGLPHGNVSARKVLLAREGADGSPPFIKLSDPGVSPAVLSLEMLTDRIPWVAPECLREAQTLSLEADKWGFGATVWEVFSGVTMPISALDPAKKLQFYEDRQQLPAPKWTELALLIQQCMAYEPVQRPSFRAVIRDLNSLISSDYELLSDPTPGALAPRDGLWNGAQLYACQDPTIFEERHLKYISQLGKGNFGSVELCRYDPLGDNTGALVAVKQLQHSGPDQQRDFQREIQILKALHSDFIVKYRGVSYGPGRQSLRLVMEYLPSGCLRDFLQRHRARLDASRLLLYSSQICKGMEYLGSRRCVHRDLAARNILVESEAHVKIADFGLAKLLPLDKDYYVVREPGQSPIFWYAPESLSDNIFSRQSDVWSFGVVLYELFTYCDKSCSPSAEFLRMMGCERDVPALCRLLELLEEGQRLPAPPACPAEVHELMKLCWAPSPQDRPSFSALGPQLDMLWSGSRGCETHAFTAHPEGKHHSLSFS
The test is described as follows: In vitro JAK3 kinase activity assay (HTRF kinEASE TK). In kind it is biochemical. The settings on record: 0.75 μM ATP, 25 minutes, room temperature; read-out: IC50 JAK3 (enzyme activity assay). As for the experimental part: (§1) Recombinant human JAK1 protein was purchased from Thermo Fisher. JAK2 and JAK3 proteins were purchased from Carna Biosciences. HTRF kinEASE TK kit was purchased from Cisbio Bioassays. BioTek microplate reader Synergy Neo 2 was used to read the plate.
(§2) The test compounds were of 4-fold serial dilution, and the final concentration ranged from 10 μM to 0.04 nM in duplicates for each concentration. The concentration of DMSO in the reaction system was 1%.
The reaction included […] JAK 3 protein kinase, 1 μM TK Substrate-biotin peptide substrate, 0.75 μM ATP, 1× enzymatic buffer, 5 mM MgCl2, and 1 mM DTT. The detection plate was White Proxiplate 384-Plus plate (PerkinElmer), and the mixture (10 μl) was reacted at room temperature for 25 minutes.
(§3) Reaction detection: 10 μl of detection reagent was added to the reaction plate containing final concentration of 0.125 μM of SA-XL665 and 5 μl 1×TK-Antibody. The mixture was incubated overnight at room temperature. The plate was read using Synergy Neo 2.
(§4) Data analysis: 665/620 Ratio was converted into inhibition rate (%) through the following formula: inhibition rate (%)=(Ratiomax−Ratiotest)/(Ratiomax−Ratiomin)×100%. Ratiomax is a positive control without detection compound, Ratiomin is a negative control without detection compound and kinase, Ratiotest is the detection value of each concentration of different compounds. 4 parameter curve fitting was performed to measure the IC50 (nM) values. The details are shown in, Table 1.

Test [2] concerns the target T2, JAK1 (Homo sapiens, UniProt P23458). The test is described as follows: In vitro JAK1 kinase activity assay (HTRF kinEASE TK). In kind it is biochemical. On the set-up: purchased Thermo Fisher. The settings on record: 1.1 μM ATP, 60 minutes, room temperature; read-out: IC50 JAK1 (enzyme activity assay). The procedure:
as §1, §2
The reaction included 0.5 ng/μl JAK 1 protein kinase, 1 μM TK Substrate-biotin peptide substrate, 1.1 μM ATP, 1× enzymatic buffer, 5 mM MgCl2, 1 mM MnCl2, 1 mM DTT, and 2.5 nM SEB. The detection plate was White Proxiplate 384-Plus plate (PerkinElmer), and the mixture (10 μl) was reacted at room temperature for 60 minutes.
as §3, §4

In test [3] the target is T3, JAK2 (Homo sapiens, UniProt O60674). The test is described as follows: In vitro JAK2 kinase activity assay (HTRF kinEASE TK). In kind it is biochemical. More on the design: purchased Carna Biosciences. Particulars: 2.7 μM ATP, 25 minutes, room temperature; read-out: IC50 JAK2 (enzyme activity assay). The procedure:
as §1, §2
The reaction included 0.001 ng/μl JAK 2 protein kinase, 1 μM TK Substrate-biotin peptide substrate, 2.7 μM ATP, 1× enzymatic buffer, 5 mM MgCl2, and 1 mM DTT. The detection plate was White Proxiplate 384-Plus plate (PerkinElmer), and the mixture (10 μl) was reacted at room temperature for 25 minutes.
as §3, §4

Test [4] deals with T2, JAK1. The test is described as follows: Cellular JAK1 activity assay: IL-6-stimulated STAT3 phosphorylation in TF-1 cells. Particulars: IL-6 (30 ng/mL), pSTAT3, read-out: IC50 Cell JAK1. More on the design: endogenous in cells; host or cells: TF-1 cells (ATCC). In kind it is cell-based. As for the experimental part:
(§5) In TF-1 cells, IL-6 stimulation leads to phosphorylation of STAT3 through JAK1, while EPO stimulants phosphorylation of STAT5 via JAK2.
(§6) TF-1 cells were obtained from American Type Culture Collection (ATCC). TF-1 cells were starved overnight (cell density was 100,000 cells/well at plating) in OptiMEM medium without phenol red containing 0.5% fetal bovine serum (FBS), 0.1 mM non-essential amino acids (NEAA), 1 mM sodium pyruvate at 37° C. The compound was serially diluted in DMSO, added to TF-1 cells and incubated at 37° C. for 20 minutes. The final concentration of DMSO was 0.2%. Then, human recombinant cytokine IL-6 (30 ng/mL) or EPO (10 U/mL) was added to the wells containing TF-1 cells. After the cell plate was incubated for 30 minutes, cells were lysed, and the phosphorylation of STAT3 (IL-6) or STAT5 (EPO) in the cell lysate (pSTAT3/total STAT3 Elisa Kit: CST #7300C/CST #7305C; pSTAT5 and total STAT5 Elisa Kit: Abcam #ab205715) was measured. The IC50 value was determined as the concentration of the compound required to inhibit STAT phosphorylation by 50% relative to the measured DMSO control.

Test [5] deals with T3, JAK2. The test is described as follows: Cellular JAK2 activity assay: EPO-stimulated STAT5 phosphorylation in TF-1 cells. The format is cell-based. More on the design: endogenous in cells; host or cells: TF-1 cells (ATCC). Particulars: EPO (10 U/mL), pSTAT5, read-out: IC50 Cell JAK2. The procedure: as §5, §6

T2 sequence (P23458 whole entry): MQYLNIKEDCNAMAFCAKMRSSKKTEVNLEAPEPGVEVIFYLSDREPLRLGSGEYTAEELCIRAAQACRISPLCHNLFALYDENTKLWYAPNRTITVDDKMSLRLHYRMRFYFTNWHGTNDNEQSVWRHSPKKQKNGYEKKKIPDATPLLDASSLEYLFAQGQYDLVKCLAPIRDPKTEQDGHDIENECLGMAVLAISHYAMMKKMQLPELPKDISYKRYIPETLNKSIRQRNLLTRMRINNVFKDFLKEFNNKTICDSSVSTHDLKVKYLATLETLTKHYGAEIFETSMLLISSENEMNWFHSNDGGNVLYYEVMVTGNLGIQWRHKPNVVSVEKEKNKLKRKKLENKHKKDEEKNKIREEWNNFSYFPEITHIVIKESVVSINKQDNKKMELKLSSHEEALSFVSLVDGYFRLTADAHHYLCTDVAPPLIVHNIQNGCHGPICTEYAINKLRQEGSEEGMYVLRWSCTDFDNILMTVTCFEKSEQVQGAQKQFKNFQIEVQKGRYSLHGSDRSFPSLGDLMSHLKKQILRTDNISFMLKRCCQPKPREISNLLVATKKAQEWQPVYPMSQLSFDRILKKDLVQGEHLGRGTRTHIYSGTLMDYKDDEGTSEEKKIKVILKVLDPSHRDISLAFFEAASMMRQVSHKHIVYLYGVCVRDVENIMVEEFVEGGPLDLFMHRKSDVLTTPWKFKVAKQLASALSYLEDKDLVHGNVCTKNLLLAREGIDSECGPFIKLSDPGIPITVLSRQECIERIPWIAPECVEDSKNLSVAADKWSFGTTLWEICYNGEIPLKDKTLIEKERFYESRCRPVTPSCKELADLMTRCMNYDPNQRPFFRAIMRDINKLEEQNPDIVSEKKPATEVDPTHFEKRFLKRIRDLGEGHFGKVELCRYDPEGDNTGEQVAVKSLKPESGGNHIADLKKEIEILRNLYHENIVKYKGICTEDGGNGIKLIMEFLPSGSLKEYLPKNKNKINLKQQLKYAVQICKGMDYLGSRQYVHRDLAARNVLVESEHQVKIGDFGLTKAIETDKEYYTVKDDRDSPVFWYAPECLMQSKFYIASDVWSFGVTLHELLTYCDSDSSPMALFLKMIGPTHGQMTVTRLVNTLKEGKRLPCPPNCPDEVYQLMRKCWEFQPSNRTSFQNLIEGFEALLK
T3 sequence (O60674 whole entry): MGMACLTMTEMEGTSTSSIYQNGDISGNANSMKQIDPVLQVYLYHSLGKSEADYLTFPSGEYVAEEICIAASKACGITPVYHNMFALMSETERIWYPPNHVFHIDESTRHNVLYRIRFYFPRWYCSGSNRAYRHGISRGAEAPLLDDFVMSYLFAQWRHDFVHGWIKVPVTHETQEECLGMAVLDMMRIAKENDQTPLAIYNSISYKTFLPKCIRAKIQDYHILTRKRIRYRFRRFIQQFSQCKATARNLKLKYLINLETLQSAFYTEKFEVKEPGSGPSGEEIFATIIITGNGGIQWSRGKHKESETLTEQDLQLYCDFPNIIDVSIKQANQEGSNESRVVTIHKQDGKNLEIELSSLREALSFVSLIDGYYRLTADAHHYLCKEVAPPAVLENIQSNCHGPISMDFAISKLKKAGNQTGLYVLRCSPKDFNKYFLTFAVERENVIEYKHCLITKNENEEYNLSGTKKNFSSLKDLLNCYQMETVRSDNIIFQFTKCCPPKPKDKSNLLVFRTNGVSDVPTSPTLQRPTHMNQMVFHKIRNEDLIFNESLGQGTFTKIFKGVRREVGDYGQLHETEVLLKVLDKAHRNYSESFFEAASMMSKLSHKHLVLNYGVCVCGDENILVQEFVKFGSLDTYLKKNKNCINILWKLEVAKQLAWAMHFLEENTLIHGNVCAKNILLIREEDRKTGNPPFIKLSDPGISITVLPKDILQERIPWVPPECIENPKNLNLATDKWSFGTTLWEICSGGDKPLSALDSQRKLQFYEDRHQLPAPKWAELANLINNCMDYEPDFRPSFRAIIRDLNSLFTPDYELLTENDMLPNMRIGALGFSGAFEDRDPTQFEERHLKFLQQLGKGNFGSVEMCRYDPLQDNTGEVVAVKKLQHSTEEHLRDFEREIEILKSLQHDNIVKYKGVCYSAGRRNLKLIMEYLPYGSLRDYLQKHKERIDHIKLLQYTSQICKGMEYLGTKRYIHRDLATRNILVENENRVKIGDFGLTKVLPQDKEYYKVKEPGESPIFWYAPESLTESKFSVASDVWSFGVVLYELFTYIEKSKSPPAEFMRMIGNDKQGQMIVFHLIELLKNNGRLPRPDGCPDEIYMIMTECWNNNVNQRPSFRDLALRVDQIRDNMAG

`CCC(C(=O)Nc1nccc2c(-c3nc(Nc4cn(C)nc4OC)ncc3C)c[nH]c12)N1CCC(O)C1` (stereo not drawn) [Example 8]: the negative-log IC50 (pIC50) in test [1] is over 6.30; in test [2] it was 7.30 to 8.30; in test [3], over 7.00; in test [4] it was 6.00 to 7.00; in test [5] it was under 4.70.

For the molecule `CCC(C(=O)Nc1nccc2c(-c3nc(Nc4cn(C)nc4OC)ncc3C)c[nH]c12)N1CCC(N(C)C)CC1` (stereo not drawn) [Example 9], the pIC50 in test [1] is over 6.30; in test [2] it was 7.30 to 8.30; in test [3], over 7.00; in test [4], 6.00 to 7.00; in test [5], over 5.00.

With `CCC(C(=O)Nc1nccc2c(-c3nc(Nc4cn(C)nc4OC)ncc3C)c[nH]c12)N1CC(C)N(C)C(C)C1` (stereo not drawn) [Example 10], the pIC50 was 5.00 to 6.30 in test [1]; 7.30 to 8.30 in test [2]; 5.00 to 7.00 in test [3]; under 6.00 in test [4]; under 4.70 in test [5].

As to `COc1nn(C)cc1Nc1ncc(C)c(-c2c[nH]c3c(NC(N)=O)nccc23)n1` [Example 12], the pIC50 in test [1] was over 6.30; in test [2] it was over 8.30; in test [3], over 7.00; in test [4], over 7.00; in test [5], over 5.00.

On to `CCC(C(=O)Nc1nccc2c(-c3nc(Nc4cccc(S(C)(=O)=O)c4F)ncc3C)c[nH]c12)N1CCN(C)CC1` (stereo not drawn) [Example 19, N-(3-(2-((2-Fluoro-3-(methylsulfonyl)phenyl)amino)-5-methylpyrimidin-4-yl)-1H-pyrrolo[2,3-c]pyridin-7-yl)-2-(4-methylpiperazin-1-yl)butanamide], for which the negative-log IC50 (pIC50) in test [1] is 5.00 to 6.30; in test [2], over 8.30; in test [3], 5.00 to 7.00; in test [4], 6.00 to 7.00; in test [5], under 4.70.

For the molecule `CCC(C(=O)Nc1nccc2c(-c3nc(Nc4cccc(NS(C)(=O)=O)c4F)ncc3C)c[nH]c12)N1CCN(C)CC1` (stereo not drawn) [Example 22, N-(3-(2-((2-Fluoro-3-(methylsulfonylamino)phenyl)amino)-5-methylpyrimidin-4-yl)-1H-pyrrolo[2,3-c]pyridin-7-yl)-2-(4-methylpiperazin-1-yl)butanamide], the pIC50 is 5.00 to 6.30 in test [1]; 7.30 to 8.30 in test [2]; over 7.00 in test [3]; 6.00 to 7.00 in test [4]; over 5.00 in test [5].

Take `CCC(C(=O)Nc1nccc2c(-c3nc(Nc4cccc(S(C)(=O)=O)c4F)ncc3C)c[nH]c12)N1CC2CCC(C1)N2C` (stereo not drawn) [Example 23, N-(3-(2-((2-Fluoro-3-(methylsulfonyl)phenyl)amino)-5-methylpyrimidin-4-yl)-1H-pyrrolo[2,3-c]pyridin-7-yl)-2-(8-methyl-3,8-diazabicyclo[3.2.1]octane-3-yl)butanamide]: the negative-log IC50 (pIC50) is 5.00 to 6.30 in test [1]; 7.30 to 8.30 in test [2]; 5.00 to 7.00 in test [3]; 6.00 to 7.00 in test [4]; 4.70 to 5.00 in test [5].

Regarding `CCC(C(=O)Nc1nccc2c(-c3nc(Nc4cccc(S(C)(=O)=O)c4F)ncc3C)c[nH]c12)N1CC2(CCN(C)CC2)C1` (stereo not drawn) [Example 24, N-(3-(2-((2-Fluoro-3-(methylsulfonyl)phenyl)amino)-5-methylpyrimidin-4-yl)-1H-pyrrolo[2,3-c]pyridin-7-yl)-2-(7-methyl-2,7-diazaspiro[3.5]nonane-2-yl)butanamide], the pIC50 is 5.00 to 6.30 in test [1]; 7.30 to 8.30 in test [2]; 5.00 to 7.00 in test [3]; 6.00 to 7.00 in test [4]; under 4.70 in test [5].

As to `CCC(C(=O)Nc1nccc2c(-c3nc(Nc4cccc(S(C)(=O)=O)c4F)ncc3F)c[nH]c12)N1CCN(C)CC1` (stereo not drawn) [Example 27, N-(3-(5-Fluoro-2-((2-fluoro-3-(methylsulfonyl)phenyl)amino)pyrimidin-4-yl)-1H-pyrrolo[2,3-c]pyridin-7-yl)-2-(4-methylpiperazin-1-yl) butanamide], the pIC50 is 5.00 to 6.30 in test [1]; over 8.30 in test [2]; 5.00 to 7.00 in test [3]; 6.00 to 7.00 in test [4]; under 4.70 in test [5].

For the molecule `CCC(C(=O)Nc1nccc2c(-c3nc(Nc4cccc(S(=O)(=O)CC)c4F)ncc3C)c[nH]c12)N1CCN(C)CC1` (stereo not drawn) [Example 28], the pIC50 in test [1] was 5.00 to 6.30; in test [2], over 8.30; in test [3], over 7.00; in test [4], 6.00 to 7.00; in test [5] it was 4.70 to 5.00.

For `Cc1cnc(Nc2cccc(S(C)(=O)=O)c2F)nc1-c1c[nH]c2c(NC(=O)NC(C)C)nccc12` [Example 30, 1-(3-(2-((2-Fluoro-3-(methylsulfonyl)phenyl)amino)-5-methylpyrimidin-4-yl)-1H-pyrrolo[2,3-c]pyridin-7-yl)-3-isopropylurea], the pIC50 is over 6.30 in test [1]; 7.30 to 8.30 in test [2]; 5.00 to 7.00 in test [3]; over 7.00 in test [4]; 4.70 to 5.00 in test [5].

With `COCCNC(=O)Nc1nccc2c(-c3nc(Nc4cccc(S(C)(=O)=O)c4F)ncc3C)c[nH]c12` [Example 32], the pIC50 in test [1] is over 6.30; in test [2], over 8.30; in test [3], over 7.00; in test [4], under 6.00; in test [5], under 4.70.
